Laboratory results as given in patent US8383656B2, “Thiazolidinedione energy restriction-mimetic agents” (The Ohio State University Research Foundation, priority 2009, dated 2013).
“Also recorded” adds a separate entry of the source. Read-outs that look alike come from different tables or passages of the source.

Tests used:
[1] = tested on: AMPK in C-26 colon adenocarcinoma cells; assay: Western blot of AMPK phosphorylation in C-26 cells; type: cell-based; conditions: dose- and time-dependent, 10% FBS-containing medium
Procedure: (§1) Cells and cell culture. THP-1 monocytic cells were purchased from the American Type Culture Collection (Rockville, Md.), and maintained with L-glutamine-containing RPMI 1640 supplemented with 10% fetal bovine serum (FBS), 0.25% glucose, 0.01% sodium pyruvate, 50 μM 2-mercaptoethanol, and 0.1 ml/ml penicillin/streptomycin/L-glutamine. Differentiation of THP-1 monocytes into macrophages was carried out by exposure to PMA (50 nM) in the aforementioned RPMI 1640 medium for 24 h. Colon-26 (C-26) adenocarcinoma cells were provided by a researcher at The Ohio State University. The C-26 cells were maintained in RPMI 1640 medium supplemented with 5% FBS and 1% penicillin/streptomycin.
Western blotting. THP-1 cells were lysed in SDS-sample buffer after washing with iced-PBS buffer, and then heated at 95° C. for 20 minutes. Protein extracts were prepared using M-PER mammalian protein extraction reagent (Pierce, Rockford, Ill.), containing freshly added 1% phosphatase and protease inhibitor cocktails (Calbiochem). After centrifugation of lysates at 13000 g for 10 min, supernatants were collected, and the protein concentration in each sample was determined by protein assay (Bio-Rad). Protein extracts were then suspended in 2×SDS sample buffer, separated by electrophoresis in 10% SDS-polyacrylamide gels, and transferred to nitrocellulose membranes using a semidry transfer cell. […]

AMPK = assay: Western blot of AMPK phosphorylation in LPS-treated THP-1 macrophages; type: cell-based, human
Procedure: Western blotting. THP-1 cells were lysed in SDS-sample buffer after washing with iced-PBS buffer, and then heated at 95° C. for 20 minutes. Protein extracts were prepared using M-PER mammalian protein extraction reagent (Pierce, Rockford, Ill.), containing freshly added 1% phosphatase and protease inhibitor cocktails (Calbiochem). After centrifugation of lysates at 13000 g for 10 min, supernatants were collected, and the protein concentration in each sample was determined by protein assay (Bio-Rad). Protein extracts were then suspended in 2×SDS sample buffer, separated by electrophoresis in 10% SDS-polyacrylamide gels, and transferred to nitrocellulose membranes using a semidry transfer cell. The transblotted membrane was washed twice with Tris-buffered saline containing 0.1% Tween-20 (TBST). After blocking with TBST containing 5% nonfat milk for 1 h, the membrane was incubated with primary antibodies: p172Thr-AMPK, AMPK, p705Tyr-STAT3 and STAT3 (Cell Signaling Technology; Beverly, Mass.); p389Thr-p70S6K and p70S6K (Santa Cruz Biotechnology; Santa Cruz, Calif.), each at 1:1,000 dilution in 1% TBST-nonfat milk at 4° C. overnight. After incubation with the primary antibody, the membrane was washed three times with TBST for a total of 30 min, followed by incubation with horseradish peroxidase-conjugated goat anti-mouse IgG (diluted 1:2500) for 1 h at room temperature. […]

[2] = tested on: LPS-stimulated IL-6 production in THP-1 macrophages; assay: ELISA of LPS-stimulated IL-6 production in THP-1 macrophages; type: cell-based, human; conditions: for first-tier screening result (AMPK/mTOR activation status and IL-6/IL-6 receptor signaling): LPS-stimulated THP-1 macrophages; for inhibition at 10 µM: read-out: inhibition of IL-6 production
Procedure: as §1
ELISA. IL-6 release by differentiated THP-1 macrophages in response to 10 ng/ml of LPS was analyzed by using the IL-6 ELISA kit (Cayman Chemical Co.; Ann Arbor, Mich.) according to the manufacturer's instruction in triplicate. The effect of each test compound on LPS-stimulated IL-6 release is presented as percent inhibition and was calculated using the following formula: percentage inhibition=100%×{1−[(O.D. of sample−O.D. of control)/(O.D. of LPS−O.D. of control)]}.

[3] = tested on: Sirt1 gene expression in LNCaP cells; assay: Time course of Sirt1 expression in LNCaP cells (Western blot/RT-PCR); type: cell-based; conditions: OSU-CG12 10 μM, 2-DG 10 mM
Procedure: Total RNA was isolated from drug-treated LNCaP cells using the RNeasy mini kit (Qiagen, Valencia, Calif.), and then reverse-transcribed to cDNA using the Omniscript RT Kit (Qiagen) according to manufacturer's instructions. PCR products were separated electrophoretically in 1% agarose gels and visualized by ethidium bromide staining.
(§2) Transfections were performed by electroporation using Nucleofector kit R of the Amaxa Nucleofector system (Amaxa Biosystems, Cologne, Germany). LNCaP cells were transfected with the following plasmids or siRNA: WT- and H363Y-Flag-Sirt1 (DN-Sirt1), WT- and K45R-Myc-AMPK (DN-AMPK), GFP-LC3, TSC2 shRNA, and DDIT3 siRNA (GADD153). […] For the fluorescent microscopic analysis, LNCaP cells transfected with the GFP-LC3 expression plasmid or with scrambled or TSC2 shRNA were treated as indicated for 36 h. After cells were fixed with 3.7% formaldehyde at room temperature for 20 min, nuclear counterstaining was performed using a 4,6-diamidino-2-phenylindole (DAPI)-containing mounting medium (Vector Laborotaries, Burlingame, Calif.) before examination. Images were observed using a Nikon microscope (Eclipse TE300).

[4] = tested on: MCF-7 breast cancer cells; assay: MTT cell viability assay, MCF-7 cells; type: cell-based; conditions: Homo sapiens, MCF7, 72 h, 10% FBS-supplemented medium, read-out: IC50 in inhibiting the viability of MCF-7 breast cancer cells
Procedure: (§3) Cell viability was determined using the 3-(4,5-dimethylthiazol-2-yl)-2,5-diphenyltetrazolium bromide) (MTT) assay. LNCaP and MCF-7 cells were seeded in 96-well plates (5000 cells/well) and incubated in their respective culture media supplemented with 10% FBS for 24 h. […] Drug-containing medium was then replaced with 1×MTT (0.5 mg/mL in RPMI 1640), followed by incubation at 37° C. for 2 h. After removal of medium, the reduced MTT dye was solubilized in 200 μL/well DMSO, and absorbances were measured at 570 nm.

[5] = tested on: [3H]-2-DG uptake into LNCaP cells; assay: Glucose uptake assay ([3H]-2-DG); type: cell-based; conditions: OSU-CG12 at 5 and 10 μM, resveratrol at 50 and 100 μM, P<0.05
Procedure: After washing cells with PBS, glucose uptake was initiated by addition of 1 mL of PBS containing 1 μCi/mL [^3H]-2-DG (Perkin Elmer, Waltham, Mass.) and […] nonradioactive 2-DG. After 5 min, glucose uptake was terminated by extensive washing with PBS, and cells were solubilized in 0.1% SDS buffer. Aliquots were taken for measurements of radioactivity using a scintillation counter LS6500 (Beckman).

tumor xenograft = assay: Tumor xenograft growth and acute toxicity; conditions: in vivo
[6] = tested on: LNCaP prostate cancer cells; assay: MTT cell viability assay, LNCaP cells; type: cell-based; conditions: Homo sapiens
Procedure: The compounds were tested for their ability to decrease LNCaP prostate cancer cell viability as measured by the 3-(4,5-dimethylthiazol-2-yl)-2,5-diphenyltetrazolium bromide) (MTT) assay.
as §3

[7] = tested on: human tumor cell lines of the cancer screening panel; assay: NCI60 cell line screening; type: cell-based; conditions: 48 h, SRB; variety of cancer cell types
Procedure: The NCI60 screening method was carried out using the following methodology. The human tumor cell lines of the cancer screening panel were grown in RPMI 1640 medium containing 5% fetal bovine serum and 2 mM L-glutamine. The cells were then inoculated into 96 well microtiter plates in 100 μL at plating densities ranging from 5,000 to 40,000 cells/well depending on the doubling time of individual cell lines. After cell inoculation, the microtiter plates are incubated at 37° C., 5% CO2, 95% air and 100% relative humidity for 24 h prior to addition of the thiazolidinedione derivatives. […]
Following drug addition, the plates were incubated for an additional 48 h at 37° C., 5% CO2, 95% air, and 100% relative humidity. […] Bound stain is subsequently solubilized with 10 mM trizma base, and the absorbance was read on an automated plate reader at a wavelength of 515 nm. […] Using the seven absorbance measurements [time zero, (Tz), control growth, (C), and test growth in the presence of drug at the five concentration levels (Ti)], the percentage growth is calculated at each of the drug concentrations levels. Percentage growth inhibition is calculated as: [(Ti−Tz)/(C−Tz)]×100 for concentrations for which Ti>/=Tz [(Ti−Tz)/Tz]×100 for concentrations for which Ti<Tz.
Three dose response parameters were calculated for each experimental agent. […]

[8] = tested on: β-TrCP, Sp1, and androgen receptor (AR) expression in PrECs; assay: Western blot of β-TrCP, Sp1 and AR in PrECs; type: cell-based; conditions: escalating concentrations, 48 h
[9] = tested on: conversion of LC3-I to LC3-II in LNCaP cells; assay: GFP-LC3 conversion (autophagy) in LNCaP cells; type: cell-based; conditions: 5 μM, GFP-LC3-transfected LNCaP cells
Procedure: as §2

THP-1 cells = assay: MTT viability of THP-1 cells; type: cell-based, human; conditions: at the concentrations used for IL-6 ELISA (dose range b224, 10 μM b226, 1 μM b229)

| Compound | p-AMPK level in C-26 colon adenocarcinoma cells [1] | potency in activating AMPK relative to AICAR (AMPK; LPS-treated THP-1, 6 h, AICAR 0.5 mM) | potency in blocking IL-6 release ([2]; 1 μM, 6 h, LPS-stimulated THP-1) | first-tier screening result (AMPK/mTOR activation status and IL-6/IL-6 receptor signaling) ([2]; 10 μM) | IC50 ([2]; Homo sapiens, THP-1, 6 h, 10% FBS-containing medium, read-out: IC50 for inhibition of LPS-stimulated IL-6 production) | inhibition at 10 µM ([2]; Homo sapiens, 10 μM, 6 h, LPS-stimulated THP-1) | duration of transient transcriptional activation of Sirt1 gene expression [3] | IC50 [4] | inhibition of glucose uptake [5] | acute toxicity (tumor xenograft) | suppression of tumor xenograft growth (tumor xenograft) | IC50 ([6]; LNCaP, MTT, 72 h, 10% FBS-supplemented medium, read-out: IC50 in inhibiting the viability of LNCaP prostate cancer cells) | IC50 ([6]; summary over LNCaP and MCF-7 cells, read-out: IC50 in suppressing cancer cell growth) | antitumor potency in NCI 60 cell line screening [7] | expression levels of β-TrCP, Sp1, and AR in PrECs [8] | accumulation of LC3-II (autophagy marker) [9] | inhibition at 10 µM ([2]; Homo sapiens, THP-1, 6 h) | AMPK activation (p-AMPK level) (AMPK; 10 μM, 6 h, LPS-treated THP-1) | effect on viability of THP-1 cells (THP-1 cells) | effect on LPS-stimulated IL-6 production ([2]; 10 μM, 6 h, LPS-stimulated THP-1) |
| --- | --- | --- | --- | --- | --- | --- | --- | --- | --- | --- | --- | --- | --- | --- | --- | --- | --- | --- | --- | --- |
| CC1(CN2C(=O)S/C(=C\c3ccc(NS(=O)(=O)c4ccc([N+](=O)[O-])c(C(F)(F)F)c4)cc3)C2=O)CCCCC1 [Compound 53, N-{4-[3-(1-Methyl-cyclohexylmethyl)-2,4-dioxo-thiazolidin-5-ylidene-methyl]-phenyl}-4-nitro-3-trifluoromethyl-benzenesulfonamide] | robust increases in the p-AMPK level | two-orders-of-magnitude higher | optimal agent; also recorded: highest potency | active | ~1 µM | > 80% | – | – | – | – | – | – | – | – | – | – | – | – | – | – |
| CC1(CN2C(=O)S/C(=C\c3ccc(O)c(C(F)(F)F)c3)C2=O)CCCCC1 [OSU-CG12, (Z)-5-(4-Hydroxy-3-trifluoromethyl-benzylidene)-3-(1-methyl-cyclohexylmethy)-thiazolidine-2-4-dione] | – | – | – | active | – | – | 1 h | 5 µM | significantly inhibit glucose uptake | without incurring acute toxicity | effectiveness in suppressing tumor xenograft growth | 5.7 µM | 5 µM | significantly antitumor potency | unaltered expression levels | time-dependent accumulation of LC3-II | > 80% | – | – | – |
| CC1(COc2ccc(C=C3SC(=O)NC3=O)cc2)CCCCC1 [compound 62] | – | – | – | – | – | – | – | – | – | – | – | – | – | – | – | – | – | effective in elevating the level of p-AMPK; also recorded: modest activities | neither agent inhibited the viability of THP-1 cells | modest activities |
